# From US20200298233A1, “MICROFLUIDIC PAPER CHIP FOR DETECTING MICRO-ORGANISM, METHOD FOR PREPARING THE SAME AND METHOD FOR DETECTING MICRO-ORGANISM USING THE SAME” (BIOMAX CO., LTD., priority 2017, published 2020)
# “And” between values parts separate entries of the source, which are not always exact repeats. Equal values may be shown once.
# Assays:
# Salmonella spp. [1] = assay: Bacterial lysis efficacy by measuring optical density (OD); settings: initial O.D = 1.4448
# Vibrio vulnificus [2] = assay: as above; settings: initial O.D = 0.6143
# Staphylococcus aureus [3] = assay: as above; assay type: cell-based; settings: initial O.D = 1.1877
# Esherichia coli O157 = assay: as above; assay type: cell-based, Escherichia coli O157; settings: initial O.D = 0.8139
# Listeria monocytogenes = assay: as above; assay type: cell-based; settings: initial O.D = 0.8336
# Salmonella spp. [4] = assay: Coloring reaction test of chromogenic reagents, 96 well plate; assay type: biochemical; settings: chromogenic reagent terminal concentration 10 mM, 30 minutes at 37° C.
# Vibrio vulnificus [5] = assay: as above; assay type: biochemical; settings: chromogenic reagent terminal concentration 10 mM, 30 minutes at 37° C.
# Staphylococcus aureus [6] = assay: as above; assay type: biochemical; settings: chromogenic reagent terminal concentration 10 mM, 30 minutes at 37° C.
# [7] = tested on: 5 food risk microorganisms; assay: Bacterial lysis efficacy by optical density, overall statements; assay type: cell-based; settings: table 7
Compound,Optical density (Salmonella spp. [1]; detergent 0.1%),Optical density (Salmonella spp. [1]; detergent 0.5%),Optical density (Salmonella spp. [1]; detergent 1%),Optical density (Salmonella spp. [1]; detergent 2%),Optical density (Salmonella spp. [1]; detergent 3%),Optical density (Salmonella spp. [1]; detergent 5%),Optical density (Vibrio vulnificus [2]; detergent 0.1%),Optical density (Vibrio vulnificus [2]; detergent 0.5%),Optical density (Vibrio vulnificus [2]; detergent 1%),Optical density (Vibrio vulnificus [2]; detergent 2%),Optical density (Vibrio vulnificus [2]; detergent 3%),Optical density (Vibrio vulnificus [2]; detergent 5%),Optical density (Staphylococcus aureus [3]; detergent 0.1%),Optical density (Staphylococcus aureus [3]; detergent 1%),Optical density (Staphylococcus aureus [3]; detergent 2%),Optical density (Staphylococcus aureus [3]; detergent 3%),Optical density (Staphylococcus aureus [3]; detergent 5%),Optical density (Esherichia coli O157; detergent 0.1%),Optical density (Esherichia coli O157; detergent 1%),Optical density (Esherichia coli O157; detergent 2%),also measured
Triton X-100,1.0968 and 1.0927 and 1.0890,1.0965 and 1.0899 and 1.1089,0.8827 and 0.8879 and 0.8963,0.9457 and 0.9452 and 0.9464,0.8287 and 0.8303 and 0.8231,0.8258 and 0.8240 and 0.8249,0.3916 and 0.3935 and 0.3923,0.3421 and 0.3417 and 0.3437,0.2844 and 0.2794 and 0.2801,0.3044 and 0.3089 and 0.3046,0.2947 and 0.2950 and 0.2966,0.2499 and 0.2478 and 0.2431,1.1248 and 1.1255 and 1.1291,1.2024 and 1.2028 and 1.2027,1.2247 and 1.2245 and 1.2231,1.1855 and 1.1810 and 1.1826,1.2147 and 1.2108 and 1.2034,0.8888 and 0.8930 and 0.8848,0.9722 and 0.9715 and 0.9720,0.9793 and 0.9819 and 0.9767,Optical density (Esherichia coli O157; detergent 3%): 0.9052 and 0.9049 and 0.9035; Optical density (Esherichia coli O157; detergent 5%): 0.9238 and 0.9183 and 0.9254; Optical density (Listeria monocytogenes; detergent 0.1%): 0.7013 and 0.7077 and 0.7059; Optical density (Listeria monocytogenes; detergent 0.5%): 0.7398 and 0.7403 and 0.7414; Optical density (Listeria monocytogenes; detergent 1%): 0.6622 and 0.6765 and 0.6766; Optical density (Listeria monocytogenes; detergent 2%): 0.7014 and 0.7164 and 0.7099; Optical density (Listeria monocytogenes; detergent 3%): 0.6407 and 0.6609 and 0.6608; Optical density (Listeria monocytogenes; detergent 5%): 0.6213 and 0.6340 and 0.6310
"OC[C@H]1O[C@H](Oc2c[nH]c3cc(Cl)ccc23)[C@H](O)[C@@H](O)[C@@H]1O [Salmon-alpha-glucospyranoside, 6-Chloro-3-indoxyl-alpha-D-glucopyranoside]",–,–,–,–,–,–,–,–,–,–,–,–,–,–,–,–,–,–,–,–,coloring reaction (Salmonella spp. [4]): unique and strong coloring reaction; coloring reaction (Vibrio vulnificus [5]): unique coloring reaction; coloring reaction (Staphylococcus aureus [6]): unique coloring reaction
"CCCCCCCc1ccc(C(O)CC[N+](C)(C)CCCS(=O)(=O)[O-])cc1 (stereo not shown) [C7BzO, 3-[[3-(4-heptylphenyl)-3-hydroxypropyl]-dimethylazaniumyl]propane-1-sulfonate]",–,–,–,–,–,–,–,–,–,–,–,–,–,–,–,–,–,–,–,–,lysis efficacy on addition to 1% (v/v) SB3-14 [7]: increased the most
5-Bromo-6-chloro-3-indolyl-beta-D-glucopyranoside [Magenta-beta-glucopyranoside],–,–,–,–,–,–,–,–,–,–,–,–,–,–,–,–,–,–,–,–,coloring reaction (Vibrio vulnificus [5]): unique coloring reaction
"CCCCCCCCCCCCCCCC[N+](C)(C)CCCS(=O)(=O)[O-] [SB3-16, 3-(Hexadecyldimethylammonio)propane-1-sulfonate]",0.6487 and 0.6399 and 0.6538,0.7598 and 0.7515 and 0.7651,0.4932 and 0.4918 and 0.4892,0.4688 and 0.4680 and 0.4676,0.4487 and 0.4508 and 0.4516,0.4594 and 0.4580 and 0.4632,0.1196 and 0.1210 and 0.1170,0.0680 and 0.0627 and 0.0656,0.0553 and 0.0506 and 0.0521,0.0399 and 0.0421 and 0.0383,0.0395 and 0.0407 and 0.0453,0.0324 and 0.0317 and 0.0323,1.0492 and 1.0472 and 1.0449,1.1763 and 1.1734 and 1.1719,1.0764 and 1.0741 and 1.0744,1.0675 and 1.0649 and 1.0654,1.0721 and 1.0700 and 1.0711,0.9950 and 1.0011 and 0.9956,0.8049 and 0.7896 and 0.7856,0.8432 and 0.8338 and 0.8284,Optical density (Esherichia coli O157; detergent 0.5%): 1.0314 and 1.0172 and 1.0085; Optical density (Esherichia coli O157; detergent 3%): 0.8710 and 0.8653 and 0.8610; Optical density (Esherichia coli O157; detergent 5%): 0.9536 and 0.9258 and 0.9244; Optical density (Listeria monocytogenes; detergent 0.1%): 0.7770 and 0.8027 and 0.8073; Optical density (Listeria monocytogenes; detergent 0.5%): 0.7764 and 0.7530 and 0.7657; Optical density (Listeria monocytogenes; detergent 1%): 0.8133 and 0.8142 and 0.8238; Optical density (Listeria monocytogenes; detergent 2%): 0.7546 and 0.7725 and 0.7891; Optical density (Listeria monocytogenes; detergent 3%): 0.7213 and 0.7797 and 0.7969; Optical density (Listeria monocytogenes; detergent 5%): 0.6344 and 0.6340 and 0.6042
"CCCCCCCCCCCC[N+](C)(C)CCCS(=O)(=O)[O-] [SB3-10, 3-(Dodecyldimethylammonio)propane-1-sulfonate]",0.9125 and 0.9111 and 0.9138,0.4241 and 0.4359,0.4611 and 0.4597 and 0.4705,0.4310 and 0.4345,0.4184 and 0.4186 and 0.4199,0.9464 and 0.9488 and 0.9479,0.3351 and 0.3199 and 0.3176,0.2124 and 0.2149 and 0.2105,0.1822 and 0.1758 and 0.1891,0.1627 and 0.1647 and 0.1624,0.0869 and 0.0865 and 0.0893,0.1477 and 0.1578 and 0.1677,0.9335 and 0.9313 and 0.9293,0.8872 and 0.8856 and 0.8847,0.8495 and 0.8478 and 0.8480,0.5582 and 0.5458 and 0.5385,0.8456 and 0.8446 and 0.8442,0.5979 and 0.5907 and 0.5816,0.5228 and 0.5223 and 0.5253,0.5845 and 0.5861 and 0.5779,Optical density (Staphylococcus aureus [3]; detergent 0.5%): 0.9517 and 0.9486 and 0.9454; Optical density (Esherichia coli O157; detergent 0.5%): 0.6803 and 0.6818 and 0.6832; Optical density (Esherichia coli O157; detergent 3%): 0.6355 and 0.6371 and 0.6311; Optical density (Esherichia coli O157; detergent 5%): 0.8160 and 0.8061 and 0.8134; Optical density (Listeria monocytogenes; detergent 0.1%): 0.7689 and 0.8003 and 0.7683; Optical density (Listeria monocytogenes; detergent 0.5%): 0.7694 and 0.7802 and 0.7866; Optical density (Listeria monocytogenes; detergent 1%): 0.7935 and 0.7994 and 0.8055; Optical density (Listeria monocytogenes; detergent 2%): 0.7242 and 0.7341 and 0.7357; Optical density (Listeria monocytogenes; detergent 3%): 0.6917 and 0.7252 and 0.7227; Optical density (Listeria monocytogenes; detergent 5%): 0.8414 and 0.8448 and 0.8431
"CCCCCCCC(=O)Oc1c[nH]c2cc(Cl)c(Br)cc12 [Magenta-caprylate, 5-Bromo-6-chloro-3-indoxyl caprylate]",–,–,–,–,–,–,–,–,–,–,–,–,–,–,–,–,–,–,–,–,coloring reaction (Salmonella spp. [4]): higher intensity and speed; coloring reaction (Staphylococcus aureus [6]): showed coloring reaction
5-bromo-4-chloro-3-indoxyl-alpha-D-glucopyranoside [X-alpha-glucospyranoside],–,–,–,–,–,–,–,–,–,–,–,–,–,–,–,–,–,–,–,–,coloring reaction (Vibrio vulnificus [5]): unique coloring reaction
"O=P([O-])([O-])Oc1c[nH]c2ccc(Br)c(Cl)c12.[Na+].[Na+] [X-phosphate, 5-Bromo-4-chloro-3-indoxyl phosphate, disodium salt]",–,–,–,–,–,–,–,–,–,–,–,–,–,–,–,–,–,–,–,–,coloring reaction (Salmonella spp. [4]): unique and strong coloring reaction; coloring reaction (Staphylococcus aureus [6]): unique coloring reaction
